This note sets out measurements from patent US20240132498A1, “CRYSTALLINE FORMS OF 5-(3,4-DIFLUOROBENZYL)-8-((1R,4R)-4-METHYLCYCLOHEXYL)-6,9-DIOXO-2,5,8-TRIAZASPIRO[3.5]NONANE-2-CARBALDEHYDE” (Cytokinetics, Incorporated, priority 2022, published 2024).

Data set [1] can be described thus: Projected single-dose CL and Vss values in humans (allometric scaling). The settings on record: human, allometric scaling of mouse, rat, dog, cynomolgus monkey IV PK. The protocol: Allometric scaling for the prediction of human Clearance and Volume of Distribution was based on interspecies simple allometric scaling of mouse, rat, dog, and cynomolgus monkey intravenous pharmacokinetic parameters (Boxenbaum, J Pharmacokinet Biopharm 10:201-27, 1982). Prediction of human CL was performed by extrapolating pre-clinical species' plasma intravenous clearance. The ‘rule of exponents’ (Mahmood & Balian, Life Sci. 59:579-85, 1996) was examined in this prediction, where it has been proposed that, when the exponent of simple allometry lies between 0.71 and 0.99, a correction factor based on Maximum Life Span (MLP) of this species can be applied and, when the exponent of simple allometry is greater than 1.0, a correction factor based on Brain Weight (BrW) can be applied, or a protein binding correction can be applied when available. In a similar manner, simple allometric scaling was employed to predict human Volume of Distribution. This method has been used successfully for varied drugs (Ward & Smith, Drug Metab Dispos 32:612-19, 2004; McGinnity et al., Curr Drug Metab 8:463-79, 2007).

Data set [2] is described as follows: Mouse single dose pharmacokinetics. The class given is in vivo. The settings on record: plasma, iv, 0.5 mg/kg, male C57BL/6 mice; for Vd: read-out: Vss. The method, then: Male C57BL/6 mice (18-25 g, 6-8 weeks old) were obtained from Zhejiang Vital River Laboratory Animal Technology Co., Ltd. All animals for IV administration had free access to food and water. The IV dosing was performed through tail vein. The IV dose solution for the Test Articles was prepared in 10% DMA/20% PG/70% HPOCD solution (40% w/v aqueous HPOCD) at a concentration of 0.1 mg/mL. The oral dosing suspension was prepared by suspending Test Article in 0.5% HPMC/0.1% Tween 80 in water at a concentration 0.2 mg/mL. Concentrations of IV and PO doses were measured at the end of the study. Pharmacokinetic (PK) parameters were calculated using the nominal dose values if the measured values were within 20% of the nominal values. A group of 15 mice received the IV dose where the volume was 5 mL/kg. Another group of 15 mice received by oral gavage of Test Article at 1 mg/kg. The oral dose volume was 5 mL/kg. Sparse blood samples were collected from groups of three mice via retro-orbital bleeding, placed into a K2EDTA microtainer tube and maintained on ice until centrifugation to obtain plasma. Each designated group of mice were bled at two-time points. The time points were predose (PO only), 5 (IV only), 15, 30 minutes, 1, 2, 4, 6, 8 and 24 hours postdose. Blood samples were centrifuged and the collected plasma was stored at −80° C. until analysis. Plasma samples were analyzed for Test Article concentrations using an LC/MS/MS method. Briefly, a 50 p L aliquot of each plasma sample was mixed with 100 μL of acetonitrile that contained an internal standard (IS). The mixture was vortexed and centrifuged. Ten (10) p L of the resulting solution was injected onto a reverse-phase C18 column and the resultant peaks detected on a LC/MS/MS equipped with a turbo ionspray ionization source. Sample concentrations below the limit of quantification (BLQ) were treated as zero for PK calculations. Composite PK parameters were estimated from a maximum of two sampling points per mouse and three mice per sampling point and the sparse data option of WinNonlin was used for noncompartmental analysis of the concentration-time data (Phoenix WinNonLin software, version 64; Pharsight, Mountain View, CA). The elimination rate constant (k) was calculated as the absolute value of the slope of the linear regression of logarithm of the concentration versus time for the last three data points of the concentration-time profiles. Apparent elimination half-life (t½) values were calculated as 1n(2)/k. Area under the concentration-time curve (AUC) values were estimated using linear trapezoidal method. AUC values were calculated from the dosing time to the last measurable concentration. AUC∞ values were calculated as the sum of the corresponding AUC and the ratio of the last detectable concentration divided by k. Plasma clearance (CL) was calculated from Dose/AUC. Mean resident time (MRT) was estimated by moment analysis. Volume of distribution at steady state (Vss) was calculated from MRT∞×CL. Maximum concentration (Cmax) and time to reach Cmax (tmax) were recorded as observed. Bioavailability was calculated dAUC∞,po/dAU∞.iv×100% where dAUC was the dose normalized AUC value. Compounds tested were prepared in accordance with the synthetic procedures described herein.

Data set [3] is described as follows: Monkey single dose pharmacokinetics. The settings on record: male, plasma, iv, Cynomolgus Monkey; for Vd: read-out: Vss. The class given is in vivo. The protocol:
Non-naïve Male Cynomolgus Monkey (2-5 years of age, body weight 2-5 kg) used in this study were obtained from Topgene Biotechnology. All animals for IV administration had free access to food and water; all animals for PO were fasted overnight prior to dosing and were fed approximately 6 hours after dosing. The IV dose solution was prepared in 10% DMA/50% PG/40% HPOCD solution (40% w/v aqueous HPOCD) at a concentration of 1.0 mg/mL. The oral dose suspension was prepared by suspending the compound in 0.5% HPMC/0.1% Tween 80 in distilled water at a concentration of 0.2 mg/mL. Concentrations of IV and PO doses were measured at the end of the study. PK parameters were calculated using the nominal dose values if the measured values were within 20% of the nominal values. Blood samples were collected by venipuncture of peripheral veins except the dosing vein at pre-dose, 5 15, 30 min, 1, 2, 4, 6, 8, 24 and 48 h post-dose. Blood samples were centrifuged and resultant plasma was frozen for bioanalysis. Plasma samples were stored at −80° C. before analysis. Plasma samples were analyzed for compound concentrations using the LC/MS/MS method. Briefly, a 50 μL aliquot of each plasma sample was mixed with 100 μL of acetonitrile that contained an internal standard. The mixture was vortexed and centrifuged. Ten (10) p L of the resulting solution was injected onto a reverse-phase C18 column and the resultant peaks detected on a LC/MS/MS equipped with a turbo ionspray ionization source. Sample concentrations below the limit of quantification (BLQ) were treated as zero for PK calculations. PK parameters were estimated from individual animals using noncompartmental analysis of the concentration-time data (Phoenix WinNonLin software, version 64; Pharsight, Mountain View, CA). The elimination rate constant (k) was calculated as the absolute value of the slope of the linear regression of logarithm (log) of the concentration versus time for the last three data points of the concentration-time profiles. Apparent elimination half-life (t½) values were calculated as 1n(2)/k. Area under the concentration-time curve (AUC) values were estimated using linear trapezoidal method. AUC values were calculated from the dosing time to the last measurable concentration. AUC∞ values were calculated as the sum of the corresponding AUC and the ratio of the last detectable concentration divided by k. Plasma clearance (CL) was calculated from Dose/AUC.. Mean resident time extrapolated to infinity (MRT∞) was estimated by moment analysis. Vss was calculated from MRT. X CL. Maximum concentration (Cmax) and time to reach Cmax (tmax) were recorded as observed. As this was a cross-over study, bioavailability was calculated dAUC∞,po/dAUC∞,iv ×100% where dAUC was the dose normalized AUC value from the same animal given IV and PO dose. Compounds tested were prepared in accordance with the synthetic procedures described herein.

SMILES strings stand for the structures.

One may read the clearance as a measure of how efficiently the substance is removed, as volume per time. For orientation: half-life means the time in which the quantity being followed falls by half. In the case of `O=CN1CC2(C1)C(=O)N([C@H]1CC[C@H](C(F)F)CC1)CC(=O)N2Cc1ccc(C(F)(F)F)cc1` [Comparator E, 8-((1r,4r)-4-(difluoromethyl)cyclohexyl)-6,9-dioxo-5-(4-(trifluoromethyl)benzyl)-2,5,8-triazaspiro[3.5]nonane-2-carbaldehyde], the “Projected t1/2” value in data set [1] was found to be 51.7 h. Moreover, in data set [2], the clearance came out at 11.6 mL/min/kg, the half-life is 2.8 h and the Vd is 3.28 L/kg. Also, in data set [3], the clearance was determined as 3.4 mL/min/kg, the half-life was 16 h and the Vd is 4.35 L/kg.

As for `CC(=O)N1CC2(C1)C(=O)N(c1ccc(C#N)cc1F)CC(=O)N2Cc1ccc(C(F)(F)F)cc1` [Comparator D, 4-(2-acetyl-6,9-dioxo-5-(4-(trifluoromethyl)benzyl)-2,5,8-triazaspiro[3.5]nonan-8-yl)-3-fluorobenzonitrile], the “Projected t1/2” value in data set [1] is 62 h. In data set [3], the clearance stood at 6.92 mL/min/kg, the half-life was 18.1 h and the Vd was 12.4 L/kg.

For `C[C@H]1CC[C@H](N2CC(=O)N(Cc3ccc(F)c(F)c3)C3(CN(C=O)C3)C2=O)CC1` [Compound 1, 5-(3,4-difluorobenzyl)-8-((1r,4r)-4-methylcyclohexyl)-6,9-dioxo-2,5,8-triazaspiro[3.5]nonane-2-carbaldehyde], the “Projected t1/2” value in data set [1] is 28.3 h. For the same compound, in data set [2], the clearance is 28.4 mL/min/kg, the half-life is 1.77 h and the Vd came out at 4.2 L/kg. For the same compound, in data set [3], the clearance is 11.6 mL/min/kg, the half-life was 9.94 h and the Vd turned out to be 8.89 L/kg.

With `O=C1[C@H](C2COC2)N(Cc2ccc(C(F)(F)F)cc2)C(=O)CN1c1ncc(Cl)cc1F` [Comparator C, (S)-1-(5-chloro-3-fluoropyridin-2-yl)-3-(oxetan-3-yl)-4-(4-(trifluoromethyl)benzyl)piperazine-2,5-dione, reference compound], the “Projected t1/2” value in data set [1] turned out to be 41 h. Further, in data set [2], the clearance stood at 4.67 mL/min/kg, the half-life was 2.6 h and the Vd stood at 1.39 L/kg. In data set [3], the clearance amounted to 13.8 mL/min/kg, the half-life was 11.6 h and the Vd turned out to be 12 L/kg.

For `O=CN1CC2(C1)C(=O)N(c1ccc(F)cc1F)CC(=O)N2Cc1ccc(Cl)cc1` [Comparator A, 5-(4-chlorobenzyl)-8-(2,4-difluorophenyl)-6,9-dioxo-2,5,8-triazaspiro[3.5]nonane-2-carbaldehyde], the “Projected t1/2” value in data set [1] is given as 38.7 h.
